One test has as its system db/db mice. Briefly: Diabetic wound model, VEGF and TGF-β1 content in wound tissues. It is filed as in vivo. Particulars: topical once daily; 1.65, 16.45, 164.5 μg/wound/day; vs model group. How it is done: 8 to 12 week old male db/db mice (C57BL/KsJ-db/db, with a body weight of 35-45 g/mouse) supplied by Changzhou Cvens Experimental Animal Co. Ltd. Prior to any experiments being conducted, mice were housed under standardized conditions at a constant temperature of 22±2° C., with alternating 12-hour periods of light and darkness, and were fed on a standard mouse diet with water, for about a week.
General anesthesia was induced using intraperitoneal 3% chloral hydrate (Sinopharm Chemical Reagent Co., Ltd.; 1 mL/10 g of body weight). The hair on the back was shaved by a baby hair shaver and depilated with cream. The skin area was wiped and sterilized with 75% alcohol twice.
An EMS skin biopsy punch with an 18 mm diameter was used to make a round wound on the back. The full thickness of skin was removed, and the depth of the wound reached the fascia. Wounds were left open without a suture.
The model group was given same amount of normal saline. There were 12 mice in each group apart from the control group, which had 8 mice. The skin pieces taken during wound creation were used as the samples at Day 7 for the control group.
Recombinant Human Epidermal Growth Factor (rhEGF) was purchased and prepared according to the instructions by the manufacturer. The lyophilized rhEGF powder (100000 IU/vial) was dissolved in 20 mL of normal saline to make a solution with a concentration of 5000 IU/mL. The working dose of rhEGF for this experiment was 1285 IU/wound.
Compound A and Compound B were dissolved in saline at concentrations indicated in Table 7 below (L=low dose, M=medium dose, H=high dose). 50 μL of each solution was applied to the wound surfaces every day.
Vascular endothelial growth factor (VEGF) and transforming growth factor-beta 1 (TGF-β1) play prominent roles in wound healing process. VEGF and TGF-β1 are often co-expressed in tissues in which angiogenesis occurs.

The next test has as its system Sprague Dawley (SD) rats. Briefly: Croton oil-induced anal swelling model in rats I (Evans blue content). The class given is in vivo. As to conditions: gel 0.5 and 1 mg/g, 200 μL twice a day for three days. How it is done:
A croton oil mixture was prepared by mixing one part distilled water, four parts of pyridine (Nanjing Chemical Reagent Co., Ltd.), five parts of ether (China Pharmaceutical Group Chemical Reagents Co., Ltd.) and ten parts of 6% croton oil (Shanghai Yuanye Biotechnology Co., Ltd.) ether solution.
6-8 weeks old Sprague Dawley (SD) rats with average body weights of 180-220 g were supplied by Changzhou Cvens Experimental Animal Co. Ltd. (Changzhou, Jiangsu Province, China), half male and half female. Prior to any experiments being conducted, rats were housed under standardized conditions (at a constant temperature of 22±2° C., with alternating 12-hour periods of light and darkness) and were fed on a standard mouse diet with water, for about a week.
56 rats were randomly divided into 7 groups (as shown in Table 11 below), with 8 rats in each group. Compound A, Compound B and MaYinglong hemorrhoids ointment were dissolved at concentrations indicated in Table 11 below (L=low dose, M=medium dose, H=high dose).
The rats were anesthetized by isoflurane (China Pharmaceutical Group Chemical Reagents Co., Ltd.) inhalation. 75% alcohol cotton ball was used to disinfect the skin around the anus. […]
All samples were transferred to a 55° C. water bath or a heat block. […] Absorbance was measured at 610 nm, using 500 μL of formamide as a blank. […]

A further test has as its system person one. Briefly: Pain and bleeding after an operation, patient case. It is filed as in vivo, human. The protocol:
Immediately after the operation, they used 0.5 mg/mL of Compound B spray (as described in Example 38 but packed into a normal spray bottle) to apply directly on the wound. The right pane in FIG. 10 was taken 1 hour after operation. […] The physician said that it would normally take a patient at least ten days to fully recover from such a procedure with standard care.

A further test deals with SD rats. The test is described as follows: Experimental gastric ulcer model (anhydrous alcohol). The class given is in vivo. The protocol:
SPF grade SD rats were used in this experiment, with 10 rats in each group. According to an evaluation method of health food for gastric ulcer issued by Chinese State Food and Drug Administration, the protective effect of Compound B on acute gastric ulcers induced by anhydrous alcohol was observed after continuous gavage for 30 days.
Omeprazole enteric-coated capsules (20 mg/capsule; Heilongjiang Norgas Pharmaceutical Co., Ltd., China) were opened and the powder was dissolved in water to make a 2 mg/mL solution. Compound B (see Example 7 above) powder was dissolved in water to make two solutions with concentrations of 0.25 mg/mL and 0.75 mg/mL. Administration volumes were […].
All drugs were administrated as shown in Table 13 by oral gavage for 30 consecutive days, once per day. The rats had free access to water. On the 30th day, rats were fasted for 24 hours after the last drug administration. On the 31st day, 1.0 mL/rat of absolute ethanol was given by gavage to each rat in all of the experimental groups except the control group.
1 hour later, all of the rats were sacrificed and dissected to expose the intact stomach, followed by ligation of the pylorus. 10% formaldehyde solution was administered into the stomach by perfusion and fixed for 20 minutes. The stomach was dissociated after fixation and cut open along the greater curvature. The stomach contents were washed off the lining with saline to reveal the gastric mucosa.
The length and width of gastric mucosal bleeding were measured with a Vernier calliper under a stereo microscope or by the naked eye.

Setting [1] is: 0.5 mg/mL spray directly on the wound, 1 hour after operation.

Square brackets hold non-standard residues; d marks the D form. Ends that are not written are not given here. Dopa = N[C@@H](Cc1ccc(O)c(O)c1)C(=O)O; Hyp = O=C(O)[C@@H]1C[C@@H](O)CN1

As to “{[(Ala-Lys-Pro-Ser-Tyr-Hyp-Hyp-Thr-DOPA-Lys)2-Lys]2-Lys}2-Lys (AKPSY[Hyp][Hyp]T[Dopa]KKKK; also: branched lysine dendrimer {[(peptide)2-Lys]2-Lys}2-Lys) [Compound B]”, in the test on db/db mice, the “content of TGF-β1 in wound tissues (FIG. 3)” value is reported as “stimulated the production” and the “content of VEGF in wound tissues (FIG. 2)” value was “stimulated the production”. Also, the “inflammatory swelling, EB content in rectal and anal tissues (FIG. 5)” value in the test on Sprague Dawley (SD) rats is “may reduce inflammatory swelling caused by croton oil application”. Moreover, in the test on person one (setting [1]), the “bleeding of operative wound” value is “bleeding had stopped” and the “pain of operative wound” value is listed as “only slight pain was felt”. Moreover, the wound recovery entry in the test on person one (0.5 mg/mL spray, one week later (standard care: at least ten days)) is listed as “the wound was fully recovered”. This substance also showed a Damage score with SD rats (0.25 mg/mL, 0.5 mg/kg oral gavage once per day for 30 days) of 24. The Damage score with SD rats (0.75 mg/mL, 1.5 mg/kg oral gavage once per day for 30 days) amounted to 18. Moreover, in the test with SD rats (0.5 and 1.5 mg/kg), the “effect on gastric bleeding induced by alcohol” value is listed as “may reduce gastric bleeding induced by alcohol”.

Turning to “{[(Dopa-Ala-Lys-Pro-Ser-Tyr-Hyp-Hyp-Thr-Tyr-Lys)2-Lys]2-Lys}2-Lys ([Dopa]AKPSY[Hyp][Hyp]TYKKKK; also: branched lysine dendrimer {[(peptide)2-Lys]2-Lys}2-Lys) [Compound A]”, in the test with db/db mice, the “content of TGF-β1 in wound tissues (FIG. 3)” value is listed as “stimulated the production” and the “content of VEGF in wound tissues (FIG. 2)” value was “stimulated the production”. In the test on Sprague Dawley (SD) rats, the “inflammatory swelling, EB content in rectal and anal tissues (FIG. 5)” value is reported as “may reduce inflammatory swelling caused by croton oil application”.

For the origin of these results see patent publication US20230331792A1, “NEW MULTI-FUNCTIONAL OLIGOPEPTIDES” (ENLITISA (SHANGHAI) PHARMACEUTICAL CO., LTD., priority 2019, published 2023).
